Laboratory results from paper PMC6270184, “Synthesis and Structure-Activity Relationships of Amino Acid Conjugates of Cholanic Acid as Antagonists of the EphA2 Receptor” (Molecules, 2013).
Like-named read-outs stand apart in the source and are kept apart here.

Columns and labels:
[1] = target: T1, EphA2 receptor (Mus musculus, UniProt Q03145); assay: ELISA displacement of ephrin-A1 binding from immobilized EphA2 receptor; conditions: for ability to disrupt the EphA2-ephrin-A1 interaction (in words): ELISA binding assay
Experimental: The pIC50 values of tested compounds are reported in Table 1, together with the corresponding standard deviations of the mean (SEM).
ELISA assays were performed as previously described. Briefly, compounds were stocked as 5 mM solutions in dimethyl sulfoxide (DMSO) and tested in displacing studies, starting from a concentration of 50 µM. […] The reaction was stopped with 3N HCl 100 µL/well and the absorbance was measured using an ELISA plate reader (Sunrise, TECAN, Männedorf, Switzerland) at 450 nm. IC50 values were determined using one-site competition non-linear regression analysis with Prism software (GraphPad Software Inc., San Diego, CA, USA).

[2] = target: T1, EphA2 receptor; conditions: cited from earlier work
[3] = system: FXR; conditions: cited from earlier work
[4] = system: TGR5 receptor; conditions: cited from earlier work
[5] = inhibition of biotinylated ephrin-A1-Fc binding to EphA2-Fc, means ± SEM from at least three independent experiments, read-out: pIC50±SEM (converted)
[6] = ref data from an unpublished study

T1 sequence (Q03145 with tags, fused parts or gaps limits assumed): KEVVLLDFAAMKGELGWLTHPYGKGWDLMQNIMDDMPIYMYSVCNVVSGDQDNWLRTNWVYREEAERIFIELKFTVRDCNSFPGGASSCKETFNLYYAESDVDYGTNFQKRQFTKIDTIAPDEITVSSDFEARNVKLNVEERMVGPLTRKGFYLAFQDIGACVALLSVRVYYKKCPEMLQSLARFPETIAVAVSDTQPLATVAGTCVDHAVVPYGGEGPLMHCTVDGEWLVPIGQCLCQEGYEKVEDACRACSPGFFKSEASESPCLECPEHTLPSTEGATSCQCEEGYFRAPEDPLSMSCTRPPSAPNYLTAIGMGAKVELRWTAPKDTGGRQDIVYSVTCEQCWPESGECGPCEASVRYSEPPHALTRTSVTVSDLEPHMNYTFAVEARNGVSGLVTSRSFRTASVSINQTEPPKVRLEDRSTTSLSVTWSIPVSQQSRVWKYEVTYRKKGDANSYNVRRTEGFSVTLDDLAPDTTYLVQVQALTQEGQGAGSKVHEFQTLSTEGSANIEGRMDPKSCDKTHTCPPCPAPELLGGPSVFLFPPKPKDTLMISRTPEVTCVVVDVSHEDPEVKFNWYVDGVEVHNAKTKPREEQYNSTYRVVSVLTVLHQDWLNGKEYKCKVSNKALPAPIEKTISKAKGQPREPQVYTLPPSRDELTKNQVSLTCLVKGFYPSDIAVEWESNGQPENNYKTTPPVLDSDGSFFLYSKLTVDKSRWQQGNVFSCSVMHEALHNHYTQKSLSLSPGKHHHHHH

Compound: C[C@H](CCC(=O)N[C@H](Cc1c[nH]c2ccccc12)C(=O)O)[C@H]1CC[C@H]2[C@@H]3CC[C@@H]4CCCC[C@]4(C)[C@H]3CC[C@]12C [Compound 9, N-(5β-cholan-24-oyl)-D-tryptophan]
- IC50 [1, 5]: 63.1 µM
- melting point: 141 to 145 °C

Compound: C[C@H](CCC(=O)O)[C@H]1CC[C@H]2[C@@H]3CCC4CCCC[C@]4(C)[C@H]3CC[C@]12C (some centres unmarked) [Compound 1, cholanic acid]
- IC50 [1]: 12.3 µM
- pIC50, inhibition of the EphA2-ephrin-A1 interaction [2]: 4.91

Compound: C[C@H](CCC(=O)O)[C@H]1CC[C@H]2[C@@H]3CC[C@@H]4C[C@H](O)CC[C@]4(C)[C@H]3CC[C@]12C [LCA, lithocholic acid]
- agonism of FXR (in words) [3]: rather potent agonist
- agonism of TGR5 (in words) [4]: rather potent agonist

Compound: COC(=O)CNC(=O)CC[C@@H](C)[C@H]1CC[C@H]2[C@@H]3CC[C@@H]4CCCC[C@]4(C)[C@H]3CC[C@]12C [Compound 3, Methyl N-(5β-cholan-24-oyl)glycinate]
- ability to disrupt the EphA2-ephrin-A1 interaction (in words) [1]: inactive
- IC50 [1, 5]: > 316 µM

Compound: C[C@H](CCC(=O)N[C@@H](Cc1c[nH]c2ccccc12)C(=O)O)[C@H]1CC[C@H]2[C@@H]3CC[C@@H]4CCCC[C@]4(C)[C@H]3CC[C@]12C [Compound 8, N-(5β-cholan-24-oyl)-L-tryptophan]
- IC50 [1, 5]: 28.2 µM
- melting point: 98 to 101 °C

Compound: C[C@H](CCC(=O)N[C@@H](Cc1ccccc1)C(=O)O)[C@H]1CC[C@H]2[C@@H]3CC[C@@H]4CCCC[C@]4(C)[C@H]3CC[C@]12C [Compound 6, N-(5β-Cholan-24-oyl)-L-phenylalanine]
- IC50 [1, 5]: 21.4 µM
- melting point: 189 to 192 °C

Compound: C[C@H](CCC(=O)N[C@H](Cc1ccccc1)C(=O)O)[C@H]1CC[C@H]2[C@@H]3CC[C@@H]4CCCC[C@]4(C)[C@H]3CC[C@]12C [Compound 7, N-(5β-cholan-24-oyl)-D-phenylalanine]
- IC50 [1, 5]: 26.3 µM
- melting point: 195 to 198 °C

Compound: C[C@H](CCC(=O)NCCS(=O)(=O)O)[C@H]1CC[C@H]2[C@@H]3CC[C@@H]4CCCC[C@]4(C)[C@H]3CC[C@]12C [Compound 5, 2-[N-(5β-Cholan-24-oyl)amino]ethanesulfonic Acid]
- ability to disrupt the EphA2-ephrin-A1 interaction (in words) [1]: loss of inhibitory activity
- IC50 [1, 5]: > 316 µM

Compound: C[C@H](CCC(=O)NCC(=O)O)[C@H]1CC[C@H]2[C@@H]3CC[C@@H]4CCCC[C@]4(C)[C@H]3CC[C@]12C [Compound 2, N-(5β-cholan-24-oyl)glycine]
- melting point: 192 to 195 °C

Compound: C[C@H](CCC(=O)NCCC(=O)O)[C@H]1CC[C@H]2[C@@H]3CC[C@@H]4CCCC[C@]4(C)[C@H]3CC[C@]12C [Compound 4, N-(5β-Cholan-24-oyl)-β-alanine]
- melting point: 152 to 155 °C

Compound: C[C@H](CCC(=O)N[C@@H](Cc1c[nH]c2ccccc12)C(=O)O)[C@H]1CC[C@H]2[C@@H]3CC[C@@H]4C[C@H](O)CC[C@]4(C)[C@H]3CC[C@]12C [PCM126/UniPR126]
- interaction with FXR (in words) [3, 6]: does not interact
- activity on TGR5 receptor (in words) [4, 6]: micromolar range
